For 26 compounds, EC50 and CC50 results are on record in ChEMBL document CHEMBL1156829 (Proc Natl Acad Sci U S A, 2008).

Structures can show the parent of a compound that is named as a salt. Numbered stars: 1 amine (or outer) side, 2 acyl side, 3 side chain; on linkers, the order of the positions; unused ones are H or OH. Bridge positions count the residues as written; N and C are the ends. Square brackets hold non-standard residues; d marks the D form. Peptide text beside a SMILES is read from it. I, II: the chains in the order shown. * marks the point of attachment. ξ: configuration not given here. Actinocin(9to1) = Cc1c2oc3c(C)ccc(C(=O)[*:1])c3nc-2c(C(=O)[*:2])c(N)c1=O; X1 = CCC(=O)CC(O)C[C@@H](C)C[C@H](N[*:1])C(=O)[*:2]; Hexenoyl(2E,4S-Me) = CC[C@H](C)/C=C/C(=O)*; Leu(3R-OH) = CC(C)[C@@H](O)[C@H](N)C(=O)O; NH((S)CH(Me)CH2NMe2) = C[C@@H](CN(C)C)N*; Pro(4S-Me) = C[C@@H]1CN[C@H](C(=O)O)C1; ξNMeV = CNC(C(=O)O)C(C)C; Aib = CC(C)(N)C(=O)O; ξT = CC(O)C(N)C(=O)O; NHCH2CH2OH = OCCN*; ξP = O=C(O)C1CCCN1; βAla = NCCC(=O)O; Sar = CNCC(=O)O; For = O=C* Some results are limits rather than exact numbers.

Data set [1] deals with Plasmodium falciparum. Briefly: NOVARTIS: Inhibition of Plasmodium falciparum 3D7 (drug-susceptible) proliferation in erythrocyte-based infection assay. Particulars: Plasmodium falciparum, 3D7. The class given is functional, organism-based.
Data set [2] relates to Plasmodium falciparum. In words: NOVARTIS: Inhibition of Plasmodium falciparum W2 (drug-resistant) proliferation in erythrocyte-based infection assay. The following applies: Plasmodium falciparum, W2; read-out: EC50. It is filed as functional, organism-based.
A short description of data set [3]: NOVARTIS: Cytotoxicity against human hepatocellular carcinoma cell line (Huh7). The class given is toxicity, cell-based, Huh-7. The following applies: Huh7 cells (hepatocellular carcinoma cell line).

As for `CC(C)C[C@@H](NC(=O)[C@H](C)NC(=O)CNC(=O)[C@@H](NC=O)C(C)C)C(=O)N[C@@H](C)C(=O)N[C@@H](C(=O)N[C@H](C(=O)N[C@@H](C(=O)N[C@@H](Cc1c[nH]c2ccccc12)C(=O)N[C@H](CC(C)C)C(=O)N[C@@H](Cc1c[nH]c2ccccc12)C(=O)N[C@H](CC(C)C)C(=O)N[C@@H](Cc1c[nH]c2ccccc12)C(=O)N[C@H](CC(C)C)C(=O)N[C@@H](Cc1c[nH]c2ccccc12)C(=O)NCCO)C(C)C)C(C)C)C(C)C` (For-VGA[dL]A[dV]V[dV]W[dL]W[dL]W[dL]W-NHCH2CH2OH), the results for the EC50 with Plasmodium falciparum [1] and with Plasmodium falciparum [2] were 2890 nM and 2990 nM, respectively. Moreover, the CC50 in data set [3] was determined as 98800 nM.
As to `Cc1c2oc3c(C)ccc(C(=O)NC4C(=O)N[C@@H](C(C)C)C(=O)N5CCCC5C(=O)N(C)CC(=O)N(C)C(C(C)C)C(=O)OC4C)c3nc-2c(C(=O)NC2C(=O)N[C@H](C(C)C)C(=O)N3CCCC3C(=O)N(C)CC(=O)N(C)C(C(C)C)C(=O)OC2C)c(N)c1=O` (stereo partly drawn) (I: [ξT]V[ξP][Sar][ξNMeV] / II: [ξT][dV][ξP][Sar][ξNMeV]; ester I:1-I:C, II:1-II:C; linker I:N-II:N via Actinocin(9to1)), the EC50 in the data set on Plasmodium falciparum [1] came out at 25.9 nM; in the data set on Plasmodium falciparum [2] it was 20.7 nM. Also, the midpoint of cytotoxicity in data set [3], the CC50, lay at 296 nM.
On the same counts, the results for `CC(C)C[C@@H]1NC(=O)[C@@H](CC(C)C)NC(=O)[C@H](C(C)C)NC(=O)[C@H]2CSSC[C@@H](NC1=O)C(=O)N2` (cyclo(L[dC][dC]V[dL]); disulfide 2-3) are > 1250 nM, 164 nM and > 10000 nM.
In the same order, the values of `CCC(=O)CC(O)C[C@@H](C)C[C@H](NC(=O)[C@@H]1C[C@H](C)CN1C(=O)/C=C/[C@@H](C)CC)C(=O)N[C@H](C(=O)NC(C)(C)C(=O)N[C@@H](CC(C)C)C(=O)N[C@@H](CC(C)C)C(=O)NC(C)(C)C(=O)NC(C)(C)C(=O)NCCC(=O)N[C@@H](C)CN(C)C)[C@H](O)C(C)C` (stereo partly drawn) ({Hexenoyl(2E,4S-Me)}-[Pro(4S-Me)][X1][Leu(3R-OH)][Aib]LL[Aib][Aib][βAla]-{NH((S)CH(Me)CH2NMe2)}) are 194 nM, 651 nM and 6470 nM.
On the same counts, the results for `CCCn1c(=O)c2[nH]c(C3CCCC3)nc2n(CCC)c1=O` [1,3-DIPROPYL-8-CYCLOPENTYLXANTHINE [DPCPX]] are 764 nM, 346 nM and […].
Turning to `N/C(=N\C(=O)c1nc(Cl)c(N)nc1N)NCc1ccc(Cl)c(Cl)c1` [3',4' DICHLOROBENZAMIL], the EC50 with Plasmodium falciparum [1] came to 89.6 nM; with Plasmodium falciparum [2] it was 283 nM. Also, in data set [3], the CC50 turned out to be 4590 nM.
On the same counts, the results for `COc1cc([C@@H]2OC[C@@H]3[C@H]2CO[C@H]3c2cc(OC)c(O[C@@H]3O[C@H](CO)[C@@H](O)[C@H](O)[C@H]3O)c(OC)c2)cc(OC)c1O` [ACANTHOSIDE B] are 771 nM, 388 nM and > 10000 nM.
On the same counts, the results for `CCN1CCN(Cc2ccc(-c3cc4c(N[C@H](C)c5ccccc5)ncnc4[nH]3)cc2)CC1` [AEE-788] are 1380 nM, 28.5 nM and 27800 nM.
In the same order, the values of `CCN(CC)CCCC(C)Nc1cc(/C=C/c2ccccc2Cl)nc2cc(Cl)ccc12` (stereo not drawn) [AMINOQUINOL] are 178 nM, 283 nM and > 10000 nM.
As for `COc1ccc(C[C@H]2NC[C@H](O)[C@H]2OC(C)=O)cc1` [ANISOMYCIN], the EC50 is 9.75 nM with Plasmodium falciparum [1] and 10.3 nM in the data set on Plasmodium falciparum [2]. Further, the CC50 in data set [3] was > 2360 nM.
In the same order, the values of `C[C@@H]1CC[C@H]2[C@@H](C)C(=O)O[C@@H]3O[C@@]4(C)CC[C@@H]1[C@]32OO4` [ARTEMISININ] are 43 nM, 10.3 nM and > 10000 nM.
On the same counts, the results for `C[C@H]1[C@@H](O)O[C@@H]2O[C@@]3(C)CC[C@H]4[C@H](C)CC[C@@H]1[C@@]24OO3` [ARTENIMOL] are 11.8 nM, 7.1 nM and 44900 nM.
Take `COc1ccc(CCN2CCC(Nc3nc4ccccc4n3Cc3ccc(F)cc3)CC2)cc1` [ASTEMIZOLE]: the EC50 with Plasmodium falciparum [1] turned out to be 447 nM; in the data set on Plasmodium falciparum [2] it was 711 nM. Also, it took 20900 nM to reach half-maximal cytotoxicity in data set [3] (CC50).
In the same order, the values of `COc1ccc2cc3[n+](cc2c1OC)CCc1cc2c(cc1-3)OCO2` [BERBERINE CHLORIDE] are 218 nM, 442 nM and > 100000 nM.
On the same counts, the results for `CCOC(=O)c1cnc2cc(OCC(C)C)c(OCC(C)C)cc2c1O` [BUQUINOLATE] are 649 nM, 958 nM and > 10000 nM.
For `CC[C@H]1CN2CCc3cc(OC)c(OC)cc3[C@@H]2C[C@@H]1C[C@H]1NCCc2cc(O)c(OC)cc21` [CEPHAELINE HYDROBROMIDE], the EC50 in the data set on Plasmodium falciparum [1] is 3.61 nM; in the data set with Plasmodium falciparum [2], 4.23 nM. The midpoint of cytotoxicity in data set [3], the CC50, lay at 26.1 nM.
In the same order, the values of `CC1(C)N=C(N)N=C(N)N1c1ccc(Cl)cc1` [CHLORCYCLOGUANIL HYDROCHLORIDE] are 0.986 nM, 884 nM and 27400 nM.
In the same order, the values of `CCN(CC)CCCC(C)Nc1ccnc2cc(Cl)ccc12` (stereo not drawn) [CHLOROQUINE] are 2.43 nM, 83.7 nM and 12400 nM.
In the same order, the values of `C=C[C@H]1CN2CC[C@H]1C[C@@H]2[C@@H](O)c1ccnc2ccccc12` [CINCHONINE] are 95.3 nM, 110 nM and > 6250 nM.
Turning to `CC(CCCNCCO)Nc1ccnc2cc(Cl)ccc12` (stereo not drawn) [CLETOQUINE], the results for the EC50 in the data set with Plasmodium falciparum [1] and in the data set with Plasmodium falciparum [2] were 26.9 nM and 736 nM, respectively. In data set [3], this compound returned a CC50 of 14000 nM.
On the same counts, the results for `Clc1ccccc1C(c1ccccc1)(c1ccccc1)n1ccnc1` [CLOTRIMAZOLE] are 280 nM, 338 nM and 25800 nM.
In the same order, the values of `C[C@@H]1C[C@@H]([C@H](O)CC2CC(=O)NC(=O)C2)C(=O)[C@@H](C)C1` [CYCLOHEXIMIDE] are 114 nM, 182 nM and > 100000 nM.
In the same order, the values of `Cc1cc(N)c2ccccc2[n+]1CCCCCCCCCC[n+]1c(C)cc(N)c2ccccc21` [DEQUALINIUM CHLORIDE] are 61.4 nM, 19.7 nM and 31000 nM.
As for `N[C@@H](COP(=O)(O)O)C(=O)O` [DEXFOSFOSERINE], the EC50 in the data set with Plasmodium falciparum [1] is 1080 nM; in the data set with Plasmodium falciparum [2] it was > 1060 nM. For the same compound, the cytotoxic concentration (CC50) in data set [3] is > 10000 nM.
In the same order, the values of `CC(C)[C@@]1(NC(=O)[C@@H]2C[C@@H]3c4cccc5[nH]cc(c45)C[C@H]3N(C)C2)O[C@@]2(O)[C@@H]3CCCN3C(=O)[C@H](Cc3ccccc3)N2C1=O` [DIHYDROERGOCRISTINE] are 1250 nM, 449 nM and 33100 nM.
On the same counts, the results for `CCC1CN2CCC1CC2[C@@H](O)c1ccnc2ccc(OC)cc12` (stereo partly drawn) [DIHYDROQUINIDINE] are 27.3 nM, 25.7 nM and > 96000 nM.

A word on the EC50: it is the concentration giving half of the maximal effect. In general, CC50 refers to the concentration that lowers cell viability or growth by half.
